Laboratory results as given in US12030908B2, “Antimicrobial compounds, compositions, and uses thereof” (Lakewood Amedex, Inc., priority 2017, dated 2024).
Several values for one entry are separate records, joined by “and”; a condition that tells them apart may be missing. Identical values can stand only once.

Tested on: Pseudomonas aeruginosa (ATCC27853)
Experiment: Neutropenic lung infection model in mice, aerosol treatment (Example 23)
Type: in vivo, BALB/c mice
Details: for Mean ± SD (Log10 CFU/g lung) / Log10 CFU/g lung: 10% aerosol, 40 min, 24 h PI; for Log10 CFU/g lung: individual mice
Description: Neutropenic, BALB/c female mice, all of which were from 6 to 8 weeks of age, were infected intranasally with Pseudomonas aeruginosa (ATCC27853). Twenty-four hours post infection; animals were treated intra-nasally by nebulization with Nu-8 (10% nebulized for twenty minutes, twice). At two, four and six hours post treatment, animals were terminated; lung tissues were collected to determine the bacterial load.
The mice were separated into cohorts in accordance with Table 11.
On day −4 (four days before the date of infection), each mouse was dosed with a single intraperitoneal injection of cyclophosphamide equivalent to 150 mg/kg and returned to its cage. On day −1 (one day before infection) each mouse received a dose equivalent to 100 mg/kg of cyclophosphamide.
On day −1, an aliquot from glycerol stocks of P. aeruginosa (ATCC27853) was thawed, inoculated into fresh Casein Soybean Digest Broth (CSDB) and incubated overnight at 37 C.
On the day of infection (Day 0), the overnight culture was centrifuged and the cells were pelleted and resuspended in sterile normal saline to obtain approximately 10^9 CFU/ml P. aeruginosa, which was used for infection. The inoculum was serially diluted ten-fold in sterile CSDB broth and 0.05 ml of six dilutions was plated onto CSD Agar plates to determine the viable count (CFU/ml) of inoculum.
Animals were divided into different groups as specified in the experimental design (TABLE 11). Infections were conducted in a biological safety cabinet, with appropriate personnel protection. Mice were placed into an induction chamber and anesthesia was induced by exposing the animals to 3%-5% Isoflurane in an oxygen flow set at approximately 1 liter per minute (LPM). Once the animals were in a sufficiently deep plane of anesthesia, they were removed and infected. Infection was done by instilling 0.02 ml (containing ˜1×10^9 CFU/ml) intra-nasally. 10 μl was instilled into each nostril of the anesthetized animal (˜2×10^7 CFU/animal). A gentle shaking/mixing of inoculum between two animals was followed for uniform distribution.
The vehicle used for the test compound was saline (0.9% NaCl adjusted to pH 3.5 with citric acid). To make 10% solution, 15 g Nu-8 was weighed and dissolved in 145 ml of the saline and the pH of the solution was adjusted to 3.5 with citric acid (0.1 M) in a final volume of 150 ml.
Treatment was initiated twenty four hours post infection. Test formulations were administered by aerosol route with nose only apparatus connected to a nebulizer (Omron Ne-C28 Compressor Nebulizer with a volume capacity of 15 ml, Particle size 3 μm, nebulization rate: 0.5 ml/min, and Aerosol output rate: 0.09 ml/min. At the given aerosol output rate of 0.09 ml/min, a total of 6 animals at the port, each animal will receive 15 μl/min. In 40 min, a total of 60 mg in 600 μl will be delivered to each animal). The formulation prepared previously was placed into the nebulizer fluid cup; animals were placed in the nose only apparatus and the entire system was placed inside a Class II Biosafety Cabinet. Animals received nebulization for 20 min, followed by a 30-minute rest and then an additional 20-minute exposure at the same dose concentration (the flow rate and percentage of test material available at the inhalation port was 16% of the initial concentration in the nebulizer if the test compound is in solution).
Groups of animals were euthanized at 2, 4 and 6 hours post treatment, as specified in experimental design, by an overdose of CO2 in an appropriate exposure chamber.
The euthanized animals were dipped into 70% ethanol for surface decontamination. Lungs were aseptically excised, weighed, placed in a 2 ml centrifuge tube containing 1 ml of sterile CSDB broth, and homogenized (Omni Tip (220THB handheld)). Serial ten-fold dilutions of the lung homogenates were prepared in sterile CSDB broth and 0.05 ml of four dilutions for each lung was plated onto CSDA agar plates. […]

SMILES: CCCCOP(=O)(O)OC[C@H]1O[C@@H](n2ccc(N)nc2=O)C[C@@H]1OP(=O)(O)OCCCC [Nu-8, sodium ((2R,3S,5R)-5-(4-amino-2-oxopyrimidin-1(2H)-yl)-3-((butoxyoxidophosphor-yl)oxy)tetrahydrofuran-2-yl)methyl butyl phosphate]
- Mean ± SD (Log10 CFU/g lung) (2 h post end of treatment): 4.92 ± 0.19 Log10 CFU/g lung
- Log10 CFU/g lung (2 h post end of treatment): 4.89 Log10 CFU/g lung and 4.76 Log10 CFU/g lung and 4.94 Log10 CFU/g lung and 4.98 Log10 CFU/g lung and 5.24 Log10 CFU/g lung and 4.70 Log10 CFU/g lung
- Mean ± SD (Log10 CFU/g lung) (4 h post end of treatment): 4.82 ± 0.26 Log10 CFU/g lung
- Log10 CFU/g lung (4 h post end of treatment): 4.51 Log10 CFU/g lung and 5.20 Log10 CFU/g lung and 5.02 Log10 CFU/g lung and 4.64 Log10 CFU/g lung (2×) and 4.88 Log10 CFU/g lung
- Mean ± SD (Log10 CFU/g lung) (6 h post end of treatment): 4.68 ± 0.26 Log10 CFU/g lung
- Log10 CFU/g lung (6 h post end of treatment): 4.58 Log10 CFU/g lung and 4.53 Log10 CFU/g lung and 5.16 Log10 CFU/g lung and 4.41 Log10 CFU/g lung and 4.60 Log10 CFU/g lung and 4.78 Log10 CFU/g lung
- antibacterial activity vs vehicle control at 2 h and 4 h (10%, 2, 4 and 6 hours post administration, p<0.05): significant antibacterial activity
- animal condition during the study period (all groups): no abnormalities were detected
